# Results reported in patent US8062669B2, “Vectorization system comprising nanoparticles of homogenous size of at least one polymer and at least one positively charged polysaccharide and method for the preparation thereof” (Bioalliance Pharma, priority 2002, dated 2011).
# Procedure for CEM 4FX cells: (§1) The NIH 3T3 and NIH 3T3 EWS-Fli-1 (adherent cells) were sown on 6-well plates at 100,000 cells per well in their culture medium without puromycin and the IW35 cells (cells in suspension) in 12-well plates at the rate of 750,000 cells per well. Other cells in suspension CEM 4FX were also tested. They were sown at 10,000 cells per well in 96-well plates.
# (§2) Different concentrations of CTAB and chitosan of various molecular weight were tested.
# (§3) Two controls were used and corresponded to the cells in the culture medium on the one hand and in the culture medium containing 100 μl of NaCl 150 mM on the other hand. After 24 hours of incubation, the measurements of cytotoxicity were performed by a test measuring the activity of the mitochondrial dehydrogenase enzymes of the living cells by oxidation of MTT (3-(4,5-dimethyl thiazol-2-yl)-2,5-diphenyl tetrazolium bromide; SIGMA) in formazan. The amount of formazan produced is directly proportional to the number of metabolically active live cells. The cells were washed with PBS and 1 ml of the medium was added. The cells were then incubated at 37° C. with 100 μl of a solution of MTT (5 mg/ml in PBS) for 3 hours. 1 ml of a lysis solution (10% SDS, 10 mM Tris) was then added to each well. The cells were incubated at 37° C. overnight. The medium was homogenized and the optical density was read at 560 nm (Dynatech MRX).
# Procedure for IW35 cells: as §1, §2, §3
# Procedure for NIH 3T3 EWS-Fli1 cells: (§4) The NIH 3T3 and NIH 3T3 EWS-Fli-1 (adherent cells) were sown on 6-well plates at 100,000 cells per well in their culture medium without puromycin and the IW35 cells (cells in suspension) in 12-well plates at the rate of 750,000 cells per well.
# (§5) For the first two cell types, the cells were sown 24 hours prior to their transfection. The medium was then eliminated and 100 μl of solution of the complex to be tested was brought into contact with the cells in 900 μl of medium.
# as §2
# (§6) Two controls were used and corresponded to the cells in the culture medium on the one hand and in the culture medium containing 100 μl of NaCl 150 mM on the other hand. After 24 hours of incubation, the measurements of cytotoxicity were performed by a test measuring the activity of the mitochondrial dehydrogenase enzymes of the living cells by oxidation of MTT (3-(4,5-dimethyl thiazol-2-yl)-2,5-diphenyl tetrazolium bromide; SIGMA) in formazan. The amount of formazan produced is directly proportional to the number of metabolically active live cells. The cells were washed with PBS and 1 ml of the medium was added. The cells were then incubated at 37° C. with 100 μl of a solution of MTT (5 mg/ml in PBS) for 3 hours. […] The medium was homogenized and the optical density was read at 560 nm (Dynatech MRX).
# Procedure for NIH 3T3 cells: as §4, §5, §2, §6
compound,measurement,setting,value
"CCCCCCCCCCCCCCCC[N+](C)(C)C.[Br-] [CTAB, cetyl trimethyl ammonium bromide]",toxicity,NIH 3T3 EWS-Fli1 cells,notable toxicity
same,toxicity,IW35 cells,elevated toxicity at low concentrations
same,toxicity,NIH 3T3 cells,notable toxicity
same,toxicity,CEM 4FX cells,elevated toxicity at low concentrations
